Where two headings read alike, the source gives them in different places.

Data set [1] deals with K562 cells. The data set can be described thus: Annexin V apoptosis assay by flow cytometry. Format: cell-based, human. The source says:
Enhancing apoptotic cell death is a crucial way for anticancer drugs to eliminate cancer cells.
The sample was centrifuged to isolate the cells and the kit instructions were followed for subsequent processing. Finally, apoptosis was quantified using a flow cytometer (Cytek Northern Light 3 Laser 16V-14B-8R, Wuxi, China). The experiments were replicated three times.
On the technique in general: Flow cytometry measures light scatter and fluorescence of single cells or particles in a stream.

In data set [2] the target is T1, VEGFR-2 (KDR) protein kinase (Homo sapiens, UniProt P35968).
T1 construct: purchased BPS Biosciences, San Diego, CA, USA
The experiment in a line: VEGFR-2 (KDR) Kinase Assay Kit enzyme inhibition assay. Format: biochemical. The following applies: Kinase-Glo MAX, 30 °C 45 min, mean ± SD, n = 3. The method, then:
Many studies have shown that abnormal VEGFR-2 signaling could induce proliferation of cervical squamous cell carcinoma cells, myeloid leukemia cancer cells, and melanoma cells. […] A VEGFR-2 (KDR) Kinase Assay Kit (BPS Biosciences, San Diego, CA, USA) was used to conduct a VEGFR-2 inhibition assay following the manufacturer’s protocol. Briefly, kinase buffer and ATP and PTK substrate (Poly-Glu,Tyr 4:1) were diluted with distilled water to prepare a master mix solution. The master mix solution, test sample, and VEGFR-2 (KDR) protein kinase (2 ng/μL) were added to a 96-well plate and incubated at 30 °C for 45 min. After incubation, Kinase-Glo™ MAX (BPS Biosciences) reagent was added to each well, and incubated for 15 min at room temperature. Then it was immediately detected with an ELISA reader. The experiments were replicated three times.
Background: Kinase-Glo reads ATP consumption through a luciferase reaction.

Data set [3] concerns mouse melanoma cell line B16. The experiment in a line: CCK-8 cytotoxicity assay, B16 cells. Format: cell-based. The following applies: CCK-8, 48 h incubation, mean ± SD, n = 3. The method, then:
(§1) The SiHa, K562, B16 and HK-2 cells were obtained from Wuhan Pricella Biotechnology Co., Ltd. (Wuhan, China). […] 2–5 × 10^3 cells were added to each well of a 96-well plate and incubated for 12 h, followed by the addition of the tested compounds. After incubation for 48 h, 10 μL of the CCK-8 solution was added to each well and incubated for another 2 h. The absorbance of each well was measured at 450 nm using an enzyme-linked immunosorbent assay (ELISA) reader. The experiments were replicated three times. The inhibition rate of cancer cells was calculated using the Formula (1). The half-maximal inhibitory concentration (IC50) value was calculated using GraphPad Prism 8.0 software.
Background: Formazan colour is commonly taken as a measure of viable cells.

Data set [4] concerns K562 cells. The data set can be described thus: Cell cycle analysis, PI staining, flow cytometry. Format: cell-based, human. Conditions: 5 μM, 24 h. The method, then: Cytotoxic compounds often inhibit cell proliferation by arresting the cell cycle at a specific phase.
The sample was then centrifuged (2000 rpm for 5 min), and the supernatant was aspirated. The fixed cells were resuspended in 0.5 mL of PI solution, cultured at 37 °C in the dark for 30 min, and then cultured at 4 °C in the dark for another 30 min Finally, the cell cycle sample was determined with a flow cytometer (Cytek Northern Light 3 laser 16V-14B-8R, Wuxi, China). The experiments were replicated three times.

The test system of data set [5] is human cervical squamous cell carcinoma cell line SiHa. The data set can be described thus: CCK-8 cytotoxicity assay, SiHa cells. Type of data set: cell-based. Conditions: CCK-8, 48 h incubation, mean ± SD, n = 3. The method, then:
as §1

Data set [6] can be described thus: CCK-8 cytotoxicity assay, HK-2 cells. Format: cell-based, human. The procedure:
as §1, with “The cytotoxicity of synthesized compounds against HK-2 cells was also detected. […] The SiHa,” for “The SiHa,”

The test system of data set [7] is human renal epithelial cell line HK-2. The experiment in a line: CCK-8 cytotoxicity assay, HK-2 cells. The following applies: Homo sapiens, Epithelial cell; CCK-8, 48 h incubation, mean ± SD, n = 3. Type of data set: cell-based. The procedure: as §1, with “The cytotoxicity of synthesized compounds against HK-2 cells was also detected. […] The SiHa,” for “The SiHa,”

The subject of data set [8] is human chronic myeloid leukemia cell line K562. The data set can be described thus: CCK-8 cytotoxicity assay, K562 cells. The following applies: CCK-8, 48 h incubation, mean ± SD, n = 3. Type of data set: cell-based. The method, then: as §1
The test system of another data set is VEGFR-2. The following applies: reported chalcone VEGFR-2 inhibitors, Figure 1; cited from earlier work.
Where [9] appears, read: K562, 1.25, 2.5 and 5.0 μM, 24 h.

T1 sequence (P35968 20-1356): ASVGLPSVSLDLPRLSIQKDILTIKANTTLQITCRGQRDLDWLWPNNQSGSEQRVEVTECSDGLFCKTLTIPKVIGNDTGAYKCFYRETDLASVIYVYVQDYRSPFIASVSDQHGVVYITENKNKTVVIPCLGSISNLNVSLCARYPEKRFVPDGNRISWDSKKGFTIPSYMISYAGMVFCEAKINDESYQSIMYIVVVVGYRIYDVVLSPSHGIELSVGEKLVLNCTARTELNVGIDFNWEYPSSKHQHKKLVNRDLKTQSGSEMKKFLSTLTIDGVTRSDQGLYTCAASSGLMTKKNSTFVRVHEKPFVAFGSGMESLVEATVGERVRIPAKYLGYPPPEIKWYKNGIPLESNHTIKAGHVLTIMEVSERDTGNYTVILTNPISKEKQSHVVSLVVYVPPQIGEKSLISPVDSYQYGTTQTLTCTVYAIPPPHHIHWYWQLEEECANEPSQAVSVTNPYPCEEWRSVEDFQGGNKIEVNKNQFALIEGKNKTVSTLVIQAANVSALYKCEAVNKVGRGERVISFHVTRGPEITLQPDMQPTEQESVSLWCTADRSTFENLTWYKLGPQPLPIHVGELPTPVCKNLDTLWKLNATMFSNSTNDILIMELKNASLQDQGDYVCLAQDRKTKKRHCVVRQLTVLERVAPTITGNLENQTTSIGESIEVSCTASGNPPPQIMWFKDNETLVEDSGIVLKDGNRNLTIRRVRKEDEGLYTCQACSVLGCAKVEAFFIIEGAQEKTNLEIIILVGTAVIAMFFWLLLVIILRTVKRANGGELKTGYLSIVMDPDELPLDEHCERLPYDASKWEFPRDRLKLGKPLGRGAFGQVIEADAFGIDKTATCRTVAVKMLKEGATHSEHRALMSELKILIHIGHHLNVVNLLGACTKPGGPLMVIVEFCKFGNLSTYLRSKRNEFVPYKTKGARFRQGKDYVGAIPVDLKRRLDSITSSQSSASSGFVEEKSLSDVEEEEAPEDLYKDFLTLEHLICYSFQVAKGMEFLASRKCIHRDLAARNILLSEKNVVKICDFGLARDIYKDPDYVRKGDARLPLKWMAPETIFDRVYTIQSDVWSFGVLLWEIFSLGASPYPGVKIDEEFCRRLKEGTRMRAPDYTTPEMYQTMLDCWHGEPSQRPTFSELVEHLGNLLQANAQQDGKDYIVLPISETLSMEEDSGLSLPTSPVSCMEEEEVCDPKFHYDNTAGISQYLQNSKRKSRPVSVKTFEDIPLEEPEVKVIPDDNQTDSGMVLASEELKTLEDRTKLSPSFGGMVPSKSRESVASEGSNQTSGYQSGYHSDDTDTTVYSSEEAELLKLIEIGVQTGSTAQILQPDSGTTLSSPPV

Regarding `O=C(Nc1ccc(C(=O)/C=C/c2cc(F)cc(F)c2)cc1)Nc1ccc(Cl)c(C(F)(F)F)c1` [Compound 2l, (E)-1-(4-chloro-3-(trifluoromethyl)phenyl)-3-(4-(3-(3,5-difluorophenyl)acryloyl)phenyl)urea], the viability at 1.25 µM with K562 cells [1] (Homo sapiens, K562, 1.25 μM, plot in Figure 2, read-out: Q4 viable cells) stood at 92.8%. In addition, the viability at 2.5 µM with K562 cells [1] (Homo sapiens, K562, 2.5 μM, plot in Figure 2, read-out: Q4 viable cells) worked out at 90.5%. In the data set on K562 cells [1] (Homo sapiens, K562, 5.0 μM, plot in Figure 2, read-out: Q4 viable cells), the viability at 5 µM amounted to 38.8%. Besides, the early apoptosis with K562 cells [1] (K562, 1.25 μM, 24 h) is 5.80%; in the data set on K562 cells [1] (K562, 2.5 μM, 24 h), 8.34%; with K562 cells [1] (K562, 5.0 μM, 24 h) it was 57.79%. Moreover, the late apoptosis result in the data set on K562 cells [1] (setting [9]) is “increased in a dose-dependent manner”. Also, in the data set on K562 cells [1] (setting [9]), the “necrosis of K562 cells” value is “Almost no necrosis”. Moreover, the IC50 (as a rule, the concentration needed to halve the response being measured) in data set [2] was 0.42 ± 0.03 µM; in data set [3], 1.39 ± 0.21 µM; in [3] (Mus musculus, B16, 48 h), 1.25 to 1.39 µM; in data set [5], 1.25 ± 0.13 µM; in data set [5] (Homo sapiens, SiHa, 48 h), 1.25 to 1.39 µM; in data set [7], 25.4 ± 1.47 µM. Besides, the IC50 stood at 1.3 ± 0.07 µM in data set [8] and 0.91 ± 0.07 µM in data set [8] (Homo sapiens, K562, 48 h). Further, the “percentage of K562 cells in the G2/M phase” value with K562 cells [4] (DMSO 8.00%) is on record as 3.05%. In the data set with K562 cells [4] (DMSO 43.34%), the “percentage of K562 cells in the S phase” value is 43.83%. Moreover, in the data set with K562 cells [4] (DMSO 48.66%), the “percentage of K562 cells in the G1 phase” value was 53.12%. Besides, the selectivity ratio at 48 h in data set [6] (human (HK-2), mouse (B16), HK-2 cells versus B16 cells, HK-2 vs B16, read-out: selectivity toward B16, fold decrease in cytotoxicity against HK-2) is 18.2; in [6] (human, HK-2 cells versus K562 cells, HK-2 vs K562, read-out: selectivity toward K562, fold decrease in cytotoxicity against HK-2) it was 19.5; in data set [6] (human, HK-2 cells versus SiHa cells, HK-2 vs SiHa, read-out: selectivity toward SiHa, fold decrease in cytotoxicity against HK-2), 20.3.

With `COc1cc(/C=C/C(=O)c2ccc(N3CCNCC3)cc2)ccc1F` [I], in the data set on VEGFR-2, the IC50 is 0.57 µM.

`CNC(=O)c1cc(Oc2ccc(C(=O)/C=C/c3cc(OC)c(OC)c(OC)c3)cc2)ccn1` [II]: the IC50 in the data set with VEGFR-2 is 3.2 µM.

The values are drawn from PMC12692968, “Design, Synthesis, Molecular Docking, and Anticancer Activity of Chalcone Derivatives as VEGFR-2 Inhibitors” (Molecules, 2025).
